The test system of one series is CT26. Nature of the series: In vivo inhibition of CDK8 in mouse CT26 cells transplanted in […] mouse assessed as downregulation of beta-catenin in tumor at 10 to 40 mg/kg, po daily measured after 21 days. Conditions: dose 10-40 mg/kg, time 21.0 day. It is filed as functional, organism-based.
Another series deals with HT-29. The experiment in a line: Antiproliferative activity against human HT-29 cells assessed as cell viability incubated for 48 hrs by MTT assay. It is filed as functional.
In series [1] the target is T1, Cyclin-dependent kinase 8 (Homo sapiens, UniProt P49336). The experiment in a line: Binding affinity to CDK8 in human HCT-116 cells by measuring competition with biotinylated (1-(4-((6-aminopyridin-3-yl)oxy)phenyl)-3-(3-(trifluoromethyl)-phenyl)urea hydrochloride). It is filed as cell-based.
Series [2] deals with Cyclin-dependent kinase 6 (Homo sapiens, UniProt Q00534). Nature of the series: Inhibition of CDK6 (unknown origin) assessed as inhibition rate.
The subject of series [3] is HCT-116. The experiment in a line: Antiproliferative activity against human HCT-116 cells assessed as cell viability incubated for 48 hrs by MTT assay. It is filed as functional.
For series [4], the system named is HCT-116. Nature of the series: Decrease in TCF1 expression in human HCT-116 cells at 1 to 4 uM incubated for 48 hrs by western blotting analysis. The format is functional, cell-based. The settings on record: dose 1-4 µM. A general note: Immunoblotting shows a protein as a band on a membrane.
Series [5] is described as follows: Toxicity in Balb/c mouse assessed as ALT level in serum at 1000 mg/kg, using gastric tube. Conditions: in vivo, po, route ig. It is filed as organism-based.
The subject of series [6] is HCT-116. The experiment in a line: Decrease in CTD phosphorylation in human HCT-116 cells at 1 to 4 uM incubated for 48 hrs by western blotting analysis. It is filed as functional, cell-based. The settings on record: dose 1-4 µM.
The nature of series [7]: MRT in Sprague-Dawley rat at 10 mg/kg, po upto 24 hrs by HPLC analysis. It is filed as ADME, organism-based. The settings on record: in vivo.
Series [8] is described as follows: Half life in Sprague-Dawley rat at 2 mg/kg, iv upto 24 hrs by HPLC analysis. The settings on record: in vivo. It is filed as ADME, organism-based.
The subject of series [9] is HCT-116. The experiment in a line: Induction of cell cycle arrest in human HCT-116 cells assessed as decrease in CDK6 level incubated for 24 hrs by Western blot analysis. The format is functional, cell-based.
The subject of the next series is SW480. Nature of the series: Antiproliferative activity against human SW480 cells assessed as cell viability incubated for 48 hrs by MTT assay. The format is functional. For orientation: Formazan colour is commonly taken as a measure of viable cells.
For series [10], the target named is T1, Cyclin-dependent kinase 8. Nature of the series: Inhibition of CDK8 (unknown origin) assessed as inhibition rate.
The species entered for another series is Homo sapiens. Nature of the series: Selectivity ratio of IC50 for human CDK7 to IC50 for human CDK8.

Activity calls are given as the source filed them. The rule behind the calls is not given here.

Usually GI50 stands for the concentration that inhibits growth by half. Broadly, the IC50 is the midpoint of a concentration-inhibition curve. Usually MRT stands for a mean duration of stay, worked out from the concentration-time curve. As usually defined, the half-life is the time in which the quantity being followed falls by half.

T1 sequence (P49336 whole entry): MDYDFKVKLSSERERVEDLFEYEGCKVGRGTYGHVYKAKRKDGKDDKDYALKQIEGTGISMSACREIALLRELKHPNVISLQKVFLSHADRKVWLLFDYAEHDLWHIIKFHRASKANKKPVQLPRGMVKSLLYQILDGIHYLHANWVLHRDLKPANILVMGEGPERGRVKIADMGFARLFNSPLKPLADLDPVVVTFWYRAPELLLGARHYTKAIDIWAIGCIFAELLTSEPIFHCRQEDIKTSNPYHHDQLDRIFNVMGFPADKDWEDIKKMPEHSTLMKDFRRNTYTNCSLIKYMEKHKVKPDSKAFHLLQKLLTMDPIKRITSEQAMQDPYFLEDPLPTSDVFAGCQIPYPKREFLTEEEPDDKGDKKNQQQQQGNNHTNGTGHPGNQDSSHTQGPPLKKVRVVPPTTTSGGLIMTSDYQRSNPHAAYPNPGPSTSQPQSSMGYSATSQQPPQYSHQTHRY
Chain of Cyclin-dependent kinase 6 (Q00534 whole entry): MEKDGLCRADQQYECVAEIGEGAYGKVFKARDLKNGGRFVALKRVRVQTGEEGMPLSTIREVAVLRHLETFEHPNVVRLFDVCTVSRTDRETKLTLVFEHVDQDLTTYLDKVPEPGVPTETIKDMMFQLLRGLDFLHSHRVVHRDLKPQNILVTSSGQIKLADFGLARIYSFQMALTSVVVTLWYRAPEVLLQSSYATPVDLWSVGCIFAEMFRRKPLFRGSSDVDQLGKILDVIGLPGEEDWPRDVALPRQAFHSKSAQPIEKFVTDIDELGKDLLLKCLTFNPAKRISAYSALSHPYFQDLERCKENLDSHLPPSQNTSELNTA

As for `Nc1ccc(Oc2ccc(NC(=O)Nc3cccc(C(F)(F)F)c3)cc2)cn1`, the outcome (in the series with CT26; in series [1]; in the series on HCT-116 [4]; in the series with HCT-116 [6]; in the series on HCT-116 [9]) was Active. The GI50 is 700 nM in the series with HT-29, 1200 nM with HCT-116 [3] and 2400 nM with SW480. In addition, the IC50 in series [2] is 251 nM; in series [10], 46.5 nM. Also, the Activity result in series [5] was “Non-Toxic”. Also, the mean residence time (MRT) in series [7] is 1.6 h. This compound also had a half-life in [8] of 30 min. For the same compound, in the series listed under Homo sapiens, the Ratio IC50 worked out at 2.

(Values after ChEMBL document CHEMBL5104182, “Design and Synthesis of a 2-Amino-pyridine Derivative as a Potent CDK8 Inhibitor for Anti-colorectal Cancer Therapy” (J Med Chem, 2022).)
